Data from US20010021697A1, “METHODS AND COMPOSITIONS FOR THE TREATMENT OF MAMMALIAN INFECTIONS EMPLOYING MEDICAMENTS COMPRISING HYMENOPTERA VENOM, PROTEINAGEOUS OR POLYPEPTIDE COMPONENTS THEREOF, OR ANALOGUES OF SUCH PROTEINACEOUS OR POLYPEPTIDE COMPONENTS” (priority 1987, published 2001).
Like-named read-outs stand apart in the source and are kept apart here.

Key:
Format in all cases: cell-based
[1] = tested on: E. Coli strain No. G1108E; experiment: Checkerboard titration synergy assay of natural melittin and analogue #6 with polymyxin B
[2] = tested on: E. coli G1108E; experiment: Checkerboard titration synergy assay of melittin analogues with polymyxin B; conditions: polymyxin B 6 units/ml, peptide 5 ug/ml, n = 6
[3] = tested on: E. coli #G1880E

## Polymyxin B
[1]; 2 hrs, doses of what is present: Polymyxin B 3 units, peptide 5 ug
  Average optical densities (OD660): .072
[1]; 2 hrs, doses of what is present: Polymyxin B 6 units, peptide 10 ug
  Average optical densities (OD660): .072
[1]; 4 hrs, doses of what is present: Polymyxin B 3 units, peptide 5 ug
  Average optical densities (OD660): .808
[1]; 4 hrs, doses of what is present: Polymyxin B 6 units, peptide 10 ug
  Average optical densities (OD660): .423
[1]; 6 hrs, doses of what is present: Polymyxin B 3 units, peptide 5 ug
  Average optical densities (OD660): 1.06
[1]; 6 hrs, doses of what is present: Polymyxin B 6 units, peptide 10 ug
  Average optical densities (OD660): .840
[1]; 8 hrs, doses of what is present: Polymyxin B 3 units, peptide 5 ug
  Average optical densities (OD660): 1.08
[1]; 8 hrs, doses of what is present: Polymyxin B 6 units, peptide 10 ug
  Average optical densities (OD660): .911
[1]; 12 hrs, doses of what is present: Polymyxin B 3 units, peptide 5 ug
  Average optical densities (OD660): 1.15
[1]; 12 hrs, doses of what is present: Polymyxin B 6 units, peptide 10 ug
  Average optical densities (OD660): .930
[2]; 0 hours after culture inoculation
  Optical densities (OD660), mean: .007
[2]; 2 hours after culture inoculation
  Optical densities (OD660), mean: .088
[2]; 4 hours after culture inoculation
  Optical densities (OD660), mean: .470
[2]; 6 hours after culture inoculation
  Optical densities (OD660), mean: .926
[2]; 8 hours after culture inoculation
  Optical densities (OD660), mean: 1.02
[2]; 10 hours after culture inoculation
  Optical densities (OD660), mean: 1.04
[2]; 12 hours after culture inoculation
  Optical densities (OD660), mean: 1.06
[3]; POLY B = 1.5, HBV = 0, T0
  MEAN A660: 0.012
[3]; POLY B = 1.5, HBV = 0, T2
  MEAN A660: 0.040
[3]; POLY B = 1.5, HBV = 0, T4
  MEAN A660: 0.411
[3]; POLY B = 1.5, HBV = 0, T6
  MEAN A660: 0.984
[3]; POLY B = 1.5, HBV = 0, T8
  MEAN A660: 1.020
[3]; POLY B = 1.5, HBV = 0, T12
  MEAN A660: 1.075
[3]; POLY B = 1.5, HBV = 0, T24
  MEAN A660: 1.200
[3]; POLY B = 3, HBV = 0, T0
  MEAN A660: 0.012
[3]; POLY B = 3, HBV = 0, T2
  MEAN A660: 0.040
[3]; POLY B = 3, HBV = 0, T4
  MEAN A660: 0.138
[3]; POLY B = 3, HBV = 0, T6
  MEAN A660: 0.642
[3]; POLY B = 3, HBV = 0, T8
  MEAN A660: 0.943
[3]; POLY B = 3, HBV = 0, T12
  MEAN A660: 0.985
[3]; POLY B = 3, HBV = 0, T24
  MEAN A660: 1.116
[3]; POLY B = 6, HBV = 0, T0
  MEAN A660: 0.012
[3]; POLY B = 6, HBV = 0, T2
  MEAN A660: 0.040
[3]; POLY B = 6, HBV = 0, T4
  MEAN A660: 0.022
[3]; POLY B = 6, HBV = 0, T6
  MEAN A660: 0.014
[3]; POLY B = 6, HBV = 0, T8
  MEAN A660: 0.011
[3]; POLY B = 6, HBV = 0, T12
  MEAN A660: 0.109
[3]; POLY B = 6, HBV = 0, T24
  MEAN A660: 0.975
[3]; POLY B = 12, HBV = 0, T0
  MEAN A660: 0.012
[3]; POLY B = 12, HBV = 0, T2
  MEAN A660: 0.040
[3]; POLY B = 12, HBV = 0, T4
  MEAN A660: 0.018
[3]; POLY B = 12, HBV = 0, T6
  MEAN A660: 0.011
[3]; POLY B = 12, HBV = 0, T8
  MEAN A660: 0.009
[3]; POLY B = 12, HBV = 0, T12
  MEAN A660: 0.075
[3]; POLY B = 12, HBV = 0, T24
  MEAN A660: 0.472
[3]; POLY B = 625, HBV = 0, T0
  MEAN A660: 0.006
[3]; POLY B = 625, HBV = 0, T2
  MEAN A660: 0.074
[3]; POLY B = 625, HBV = 0, T4
  MEAN A660: 0.330
[3]; POLY B = 625, HBV = 0, T6
  MEAN A660: 0.766
[3]; POLY B = 625, HBV = 0, T8
  MEAN A660: 1.048
[3]; POLY B = 625, HBV = 0, T12
  MEAN A660: 1.238
[3]; POLY B = 625, HBV = 0, T24
  MEAN A660: 1.401
[3]; POLY B = 1250, HBV = 0, T0
  MEAN A660: 0.006
[3]; POLY B = 1250, HBV = 0, T2
  MEAN A660: 0.074
[3]; POLY B = 1250, HBV = 0, T4
  MEAN A660: 0.159
[3]; POLY B = 1250, HBV = 0, T6
  MEAN A660: 0.172
[3]; POLY B = 1250, HBV = 0, T8
  MEAN A660: 0.259
[3]; POLY B = 1250, HBV = 0, T12
  MEAN A660: 0.778
[3]; POLY B = 1250, HBV = 0, T24
  MEAN A660: 1.362
[3]; POLY B = 2500, HBV = 0, T0
  MEAN A660: 0.006
[3]; POLY B = 2500, HBV = 0, T2
  MEAN A660: 0.074
[3]; POLY B = 2500, HBV = 0, T4
  MEAN A660: 0.123
[3]; POLY B = 2500, HBV = 0, T6
  MEAN A660: 0.109
[3]; POLY B = 2500, HBV = 0, T8
  MEAN A660: 0.167
[3]; POLY B = 2500, HBV = 0, T12
  MEAN A660: 0.075
[3]; POLY B = 2500, HBV = 0, T24
  MEAN A660: 1.037
